“Also recorded” adds a separate entry of the source.

The subject of one assay is sensitized rats. The assay can be described thus: Colorectal distention (CRD) sensitivity in visceral sensitization model. It is filed as in vivo, rat. As for the experimental part: New born rats were sensitized by infusion of 0.2 mls of 0.5% acetic acid into the colon at P10, control animals received saline.
At eight weeks of age, rats in four treatment groups: control+vehicle (n=3), control+cni-1493 (n=3), sensitized+vehicle (n=8), sensitized+cni-1493 (n=8) were tested after administration of drug (dissolved in 2.5% mannitol, injected i.p. at 5mg/kg for four days) for sensitivity to colorectal distention (CRD). Vehicle injected animals received 2.5% mannitol in water.
For electromyographic (EMG) measurements of visceromotor responses, under anesthesia (Nembutal, 50 mg/kg i.p.), two electrodes were implanted in the abdominal wall muscles and externalized behind the head. Rats were allowed a one week recovery time from this surgery. Under mild sedation (Brevital, […]), a 7 cm flexible balloon constructed from a surgical glove finger attached to tygon tubing was inserted into the descending colon and rectum via the anus and held in place by taping the tubing to the tail. Rats were housed in small Lucite cubicles (20×8×8 cm) and were allowed to adapt for one hour. CRD was performed by rapidly inflating the balloon to constant pressure. Pressure was measured using a sphygmomanometer connected to a pressure transducer. Rats were given graded CRD (20, 40, 60, 80 mm Hg) applied for 20 seconds every 4 minutes. […]

The next assay relates to Myeloperoxidase (MPO). Nature of the assay: Myeloperoxidase (MPO) assay of colon extracts. It is filed as in vivo, rat. The settings on record: sensitized rats, 5 mg/kg i.p. for four days. As for the experimental part: Descending colons were placed in 10% buffered formalin and portions were frozen for myeloperoxidase (MPO) assays. Haematoxilin & Eosin stained parafin sections will be scored for inflammation by a pathologist.
Myeloperoxidase (MPO) assays were performed as described (Bhatia et al., Proc Natl Acad Sci USA 95:4760-4756, 1998). Frozen colon was homogenized in 20 mM phosphate buffer pH 7.4 and cetrifuged at 10,000× g for 10 minutes at 4° C. Pellet was resuspended in 50 mM phosphate buffer, pH 6.0 containing 0.5% hexadecyltrimethylammonium bromide. Samples were subjected to one cycle of freeze thawing, were incubated at 6° C. for 2 hrs and cetrifuged at 10,000× g for 5 min at 4° C. Change in absorbance at 655 nm was measured in reaction mix containing 1.6 mM TMB (Sigma) and 0.3 mM H2O2 on a Beckman DU-64 spectrophotometer. Activity was normalized to protein as measured in the extracts. Protein was measured by the BCA method (Pierce, Rockford, Ill.). Activity was expressed as the change in absorbance/min/mg protein.

For `CC(=NN=C(N)N)c1cc(NC(=O)CCCCCCCCC(=O)Nc2cc(C(C)=NN=C(N)N)cc(C(C)=NN=C(N)N)c2)cc(C(C)=NN=C(N)N)c1.Cl.Cl.Cl.Cl` [CNI-1493, N,N′-bis[3,5-diacetylphenl] decanediamidetetrakis[amidinohydrazone] tetrahvdrochloride], in the assay on sensitized rats (sensitized animals, CNI1493 treatment), the “Chronic visceral hypersensitivity (CVH)” value was “ameliorates CVH”. The “Sensitivity to CRD” value in the assay with sensitized rats (sensitized rats, 5 mg/kg i.p. for four days, graded CRD, vs vehicle, 5 mg/kg) was “significant effect; also recorded: significantly reduced”. Moreover, the “MPO activity in colon” value with Myeloperoxidase (MPO) was “significantly lowered”.

The record behind these values is patent US8071652B2, “Method of treating irritable bowel syndrome” (The Board of Regents of the University of Texas System, priority 2003, dated 2011).
